Source: ChEMBL document CHEMBL5356940, “The rational design of ARUK2007145, a dual inhibitor of the α and γ isoforms of the lipid kinase phosphatidylinositol 5-phosphate 4-kinase (PI5P4K)” (RSC Med Chem, 2023)

Assays:
[1] = biological target: Phosphatidylinositol 5-phosphate 4-kinase type-2 gamma (Homo sapiens, UniProt Q8TBX8)
Description: Inhibition of GST-fused human recombinant chimeric PI5P4Kgamma+ harboring PI5P4Kalpha-like mutations expressed in Escherichia coli BL21(DE3) incubated for 60 mins by ADP-Glo assay

[2] = Apparent permeability across apical to basolateral side in dog MDCK-MDR1 cells; type: ADME, cell-based, Canis lupus familiaris
[3] = biological target: T1, Phosphatidylinositol 5-phosphate 4-kinase type-2 beta (Homo sapiens, UniProt P78356); test: Inhibition of GST-fused human recombinant PI5P4Kbeta expressed in Escherichia coli BL21(DE3) incubated for 60 mins by ADP-Glo assay
T1 sequence (P78356 whole entry): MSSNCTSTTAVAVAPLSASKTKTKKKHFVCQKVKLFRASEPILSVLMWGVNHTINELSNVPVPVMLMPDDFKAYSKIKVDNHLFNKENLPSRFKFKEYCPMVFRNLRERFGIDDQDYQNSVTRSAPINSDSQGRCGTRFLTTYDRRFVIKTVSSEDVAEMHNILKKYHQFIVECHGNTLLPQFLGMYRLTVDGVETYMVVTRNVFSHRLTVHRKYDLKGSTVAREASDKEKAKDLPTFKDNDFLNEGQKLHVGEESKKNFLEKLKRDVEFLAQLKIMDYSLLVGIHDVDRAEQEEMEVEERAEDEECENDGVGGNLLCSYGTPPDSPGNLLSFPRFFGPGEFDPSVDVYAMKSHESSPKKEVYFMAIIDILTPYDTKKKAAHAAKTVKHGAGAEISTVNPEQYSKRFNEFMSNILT

Chain of Phosphatidylinositol 5-phosphate 4-kinase type-2 gamma (Q8TBX8 2-421 limits assumed, change not shown): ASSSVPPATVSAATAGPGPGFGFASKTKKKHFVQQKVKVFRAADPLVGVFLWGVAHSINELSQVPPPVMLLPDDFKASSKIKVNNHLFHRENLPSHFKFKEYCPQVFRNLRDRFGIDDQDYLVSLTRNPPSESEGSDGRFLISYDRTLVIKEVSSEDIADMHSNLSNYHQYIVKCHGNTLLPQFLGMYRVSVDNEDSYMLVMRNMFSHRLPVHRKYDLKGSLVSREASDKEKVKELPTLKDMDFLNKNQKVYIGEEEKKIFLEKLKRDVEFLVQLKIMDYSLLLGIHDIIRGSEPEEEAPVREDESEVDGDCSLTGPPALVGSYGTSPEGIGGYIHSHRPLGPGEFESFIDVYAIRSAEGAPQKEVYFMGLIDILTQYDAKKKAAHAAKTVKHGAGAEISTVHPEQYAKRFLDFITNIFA

pIC50 [1]	Papp A→B [2]	IC50 [3]	Structure (SMILES)
8.1	3.15 ×10⁻⁶ cm/s		Cc1ncccc1-c1cc2ncnc(Nc3ccc(N4CCCC4=O)cc3)c2s1
6.3			Cc1ncccc1-c1cc2ncnc(Nc3ccc4ncoc4c3)c2s1
7.3			CSc1ccc(Nc2ncnc3sc(-c4cccnc4C)cc23)cc1
7			Cc1ncccc1-c1cc2c(Nc3ccc(C4CC4)cc3)ncnc2s1
6.4			CCc1ccc(Nc2ncnc3sc(-c4cccnc4C)cc23)cc1
7.4	2.88 ×10⁻⁶ cm/s	> 10 µM	Cn1cc(-c2cc3c(Nc4ccc(S(C)(=O)=O)cc4)ncnc3s2)cn1
7.9	2.45 ×10⁻⁶ cm/s		Cc1ccncc1-c1cc2c(Nc3ccc(S(C)(=O)=O)cc3)ncnc2s1
7.4			CSc1ccc(Nc2ncnc3sc(-c4cnoc4)cc23)cc1
7.7	3.7 ×10⁻⁶ cm/s		CSc1ccc(Nc2ncnc3sc(-c4ccncc4C)cc23)cc1
	14.2 ×10⁻⁶ cm/s		CS(=O)(=O)c1ccc(Nc2ncnc3scc(Cl)c23)cc1
	3.13 ×10⁻⁶ cm/s	> 10 µM	Cc1cnccc1-c1cc2c(Nc3ccc(S(C)(=O)=O)cc3)ncnc2s1
7.7	1.33 ×10⁻⁶ cm/s	> 10 µM	Cc1ncccc1-c1cc2c(Nc3ccc(S(C)(=O)=O)cc3)ncnc2s1
7.3	9.95 ×10⁻⁶ cm/s		Cc1ncccc1-c1cc2ncnc(Nc3ccc(C4CC4)cc3)c2s1
7.5			CS(=O)(=O)c1ccc(Nc2ncnc3sc(-c4cccnc4)cc23)cc1
7.5			COc1cnccc1-c1cc2c(Nc3ccc(S(C)(=O)=O)cc3)ncnc2s1
5.7			COc1ccc(Nc2ncnc3sc(-c4cccnc4C)cc23)cc1
5.4			Cc1ccc(Nc2ncnc3sc(-c4cccnc4C)cc23)c(C)c1
8.1	12.9 ×10⁻⁶ cm/s		CSc1ccc(Nc2ncnc3cc(-c4cccnc4Cl)sc23)cc1
5.8			Cc1ccc(Nc2ncnc3sc(-c4cccnc4C)cc23)cc1
5.3			Cc1cccc(Nc2ncnc3sc(-c4cccnc4C)cc23)c1
7.7			CSc1ccc(Nc2ncnc3sc(-c4cccnc4Cl)cc23)cc1
7.6			CSc1ccc(Nc2ncnc3sc(-c4c(C)noc4C)cc23)cc1
5.9			Cc1ccc(Nc2ncnc3sc(-c4cccnc4C)cc23)cc1C
7.8			CS(=O)(=O)c1ccc(Nc2ncnc3sc(-c4cn[nH]c4)cc23)cc1
7.9	1.33 ×10⁻⁶ cm/s		CS(=O)(=O)c1ccc(Nc2ncnc3cc(-c4cccnc4Cl)sc23)cc1
	4.73 ×10⁻⁶ cm/s	> 10 µM	CS(=O)(=O)c1ccc(Nc2ncnc3sc(-c4cccnc4Cl)cc23)cc1
7.2			CS(=O)(=O)c1ccc(Nc2ncnc3sc(-c4ccnc(Cl)c4)cc23)cc1
7.7			CS(=O)(=O)c1ccc(Nc2ncnc3sc(-c4ccncc4)cc23)cc1
